Laboratory results from ChEMBL document CHEMBL3616440, “Non-basic azolotriazinone MCHR1 antagonists for the treatment of obesity: An empirical brain-exposures-driven candidate selection for in vivo efficacy studies” (Bioorg Med Chem Lett, 2015).

How the values were obtained:
Brain [1] = assay: Drug concentration in Sprague-Dawley rat brain assessed as 6-(4-chlorophenyl)-3-(4-(2-hydroxypropoxy)-3-methoxyphenyl)pyrrolo[1,2-f][1,2,4]triazin-4(3H)-one level at 3 mg/kg, po qd after 10 days; type: ADME, organism-based; details: in vivo, 240 h, read-out: Drug uptake
Rattus norvegicus [2] = assay: Antiobesity activity in Sprague-Dawley rat assessed as body weight reduction at 10 mg/kg, po qd after 4 days relative to control; type: functional; details: 96 h
[3] = Ratio of free drug level in brain of Sprague-Dawley rat assessed as 6-(4-chlorophenyl)-3-(4-(2-hydroxypropoxy)-3-methoxyphenyl)pyrrolo[1,2-f][1,2,4]triazin-4(3H)-one level at 30 mg/kg, po to Ki for rat MCHR1; type: ADME, organism-based; details: in vivo
Plasma [4] = assay: Fraction unbound in Sprague-Dawley rat plasma assessed as 6-(4-chlorophenyl)-3-(4-(2-hydroxypropoxy)-3-methoxyphenyl)pyrrolo[1,2-f][1,2,4]triazin-4(3H)-one level; type: ADME, cell-free
Liver [5] = assay: Prodrug conversion in oral-dosed Sprague-Dawley rat liver assessed as 3-(4-(6-(4-chlorophenyl)-4-oxopyrrolo[1,2-f][1,2,4]triazin-3(4H)-yl)-2-methoxyphenoxy)-2-hydroxypropanoic acid formation; type: ADME, tissue-based; details: in vivo
Brain [6] = assay: Drug concentration in Sprague-Dawley rat brain assessed as 6-(4-chlorophenyl)-3-(4-(2-hydroxypropoxy)-3-methoxyphenyl)pyrrolo[1,2-f][1,2,4]triazin-4(3H)-one level at 10 mg/kg, po qd after 10 days; type: ADME, organism-based; details: in vivo, 240 h, read-out: Drug uptake
Rattus norvegicus [7] = assay: Antiobesity activity in Sprague-Dawley rat assessed as body weight reduction at 30 mg/kg, po qd after 4 days relative to control; type: functional; details: 96 h
Brain [8] = assay: Free drug level in Sprague-Dawley rat brain assessed as 6-(4-chlorophenyl)-3-(4-(2-hydroxypropoxy)-3-methoxyphenyl)pyrrolo[1,2-f][1,2,4]triazin-4(3H)-one level at 30 mg/kg, po qd at 20 hrs; type: ADME, organism-based; details: in vivo
Liver [9] = assay: Prodrug conversion in oral-dosed Sprague-Dawley rat liver assessed as 6-(4-chlorophenyl)-3-(4-(2,3-dihydroxypropoxy)-3-methoxyphenyl)pyrrolo[1,2-f][1,2,4]triazin-4(3H)-one formation; type: ADME, tissue-based; details: in vivo
Rattus norvegicus [10] = assay: Toxicity in Sprague-Dawley rat assessed as biliary lesion at 10 mg/kg, po qd for 10 days; type: organism-based; details: in vivo, 240 h
Brain [11] = assay: Drug concentration in Sprague-Dawley rat brain assessed as 6-(4-chlorophenyl)-3-(4-(2-hydroxypropoxy)-3-methoxyphenyl)pyrrolo[1,2-f][1,2,4]triazin-4(3H)-one level at 30 mg/kg, po qd after 10 days; type: ADME, organism-based; details: in vivo, 240 h, read-out: Drug uptake
Rattus norvegicus [12] = assay: Antiobesity activity in Sprague-Dawley rat assessed as body weight reduction at 3 mg/kg, po qd after 4 days relative to control; type: functional; details: 96 h
[13] = Ratio of free drug level in brain of Sprague-Dawley rat assessed as 6-(4-chlorophenyl)-3-(6-(4-hydroxypiperidin-1-yl)pyridin-3-yl)pyrrolo[1,2-f][1,2,4]triazin-4(3H)-one level at 3 mg/kg, po to Ki for rat MCHR1; type: ADME, organism-based; details: in vivo
Brain [14] = assay: Drug concentration in Sprague-Dawley rat brain assessed as 6-(4-chlorophenyl)-3-(6-(4-hydroxypiperidin-1-yl)pyridin-3-yl)pyrrolo[1,2-f][1,2,4]triazin-4(3H)-one level at 30 mg/kg, po qd at 20 hrs; type: ADME, organism-based; details: in vivo, read-out: Drug uptake
Brain [15] = assay: Free drug level in Sprague-Dawley rat brain assessed as 6-(4-chlorophenyl)-3-(6-(4-hydroxypiperidin-1-yl)pyridin-3-yl)pyrrolo[1,2-f][1,2,4]triazin-4(3H)-one level at 30 mg/kg, po qd at 20 hrs; type: ADME, organism-based; details: in vivo
Brain [16] = assay: Drug concentration in Sprague-Dawley rat brain assessed as 6-(4-chlorophenyl)-3-(6-(4-hydroxypiperidin-1-yl)pyridin-3-yl)pyrrolo[1,2-f][1,2,4]triazin-4(3H)-one level at 10 mg/kg, po qd at 20 hrs; type: ADME, organism-based; details: in vivo, read-out: Drug uptake
Brain [17] = assay: Drug concentration in Sprague-Dawley rat brain assessed as 6-(4-chlorophenyl)-3-(6-(4-hydroxypiperidin-1-yl)pyridin-3-yl)pyrrolo[1,2-f][1,2,4]triazin-4(3H)-one level at 3 mg/kg, po qd at 20 hrs; type: ADME, organism-based; details: in vivo, read-out: Drug uptake
[18] = Ratio of free drug level in brain of Sprague-Dawley rat assessed as 6-(4-chlorophenyl)-3-(6-(4-hydroxypiperidin-1-yl)pyridin-3-yl)pyrrolo[1,2-f][1,2,4]triazin-4(3H)-one level at 30 mg/kg, po to Ki for rat MCHR1; type: ADME, organism-based; details: in vivo
Plasma [19] = assay: Fraction unbound in Sprague-Dawley rat plasma assessed as 6-(4-chlorophenyl)-3-(6-(4-hydroxypiperidin-1-yl)pyridin-3-yl)pyrrolo[1,2-f][1,2,4]triazin-4(3H)-one level; type: ADME, cell-free
Brain [20] = assay: Free drug level in Sprague-Dawley rat brain assessed as 6-(4-chlorophenyl)-3-(6-(4-hydroxypiperidin-1-yl)pyridin-3-yl)pyrrolo[1,2-f][1,2,4]triazin-4(3H)-one level at 3 mg/kg, po qd at 20 hrs; type: ADME, organism-based; details: in vivo
Brain [21] = assay: Free drug level in Sprague-Dawley rat brain assessed as 6-(4-chlorophenyl)-3-(6-(4-hydroxypiperidin-1-yl)pyridin-3-yl)pyrrolo[1,2-f][1,2,4]triazin-4(3H)-one level at 10 mg/kg, po qd at 20 hrs; type: ADME, organism-based; details: in vivo
[22] = Ratio of free drug level in brain of Sprague-Dawley rat assessed as 6-(4-chlorophenyl)-3-(6-(4-hydroxypiperidin-1-yl)pyridin-3-yl)pyrrolo[1,2-f][1,2,4]triazin-4(3H)-one level at 10 mg/kg, po to Ki for rat MCHR1; type: ADME, organism-based; details: in vivo
Rattus norvegicus [23] = assay: Toxicity in oral-dosed Sprague-Dawley rat assessed as biliary lesion after 4 days; type: organism-based; details: in vivo, 96 h

COc1cc(-n2cnn3cc(-c4ccc(Cl)cc4)cc3c2=O)ccc1OCC(C)OC(=O)[C@@H](N)C(C)C (stereo partly specified) gave a concentration (Brain [1]) of 4.12 µM, an inhibition in vivo at 10 mg/kg (Rattus norvegicus [2]) of 3.9% and a Ratio [3] of 6. The Fu (Plasma [4]) was 0.4%, the Drug metabolism (Liver [5]) was 46 µM and the concentration (Brain [6]) was 12.9 µM. The inhibition in vivo at 30 mg/kg (Rattus norvegicus [7]) was 7.6%, the “Drug uptake(free)” value (Brain [8]) was 8.4 nM and the Drug metabolism (Liver [9]) was 6 µM. For the same compound, the Activity (Rattus norvegicus [10]) was “Toxic”, the concentration (Brain [11]) was 20.8 µM and the inhibition in vivo at 3 mg/kg (Rattus norvegicus [12]) was 2.6%.
With CC(C)[C@H](N)C(=O)OC1CCN(c2ccc(-n3cnn4cc(-c5ccc(Cl)cc5)cc4c3=O)cn2)CC1 the Ratio [13] was under 0.2, the concentration (Brain [14]) was 15.1 µM and the inhibition in vivo at 10 mg/kg (Rattus norvegicus [2]) was 1.3%. For the same compound, the “Drug uptake(free)” value (Brain [15]) was under 30 nM, the inhibition in vivo at 30 mg/kg (Rattus norvegicus [7]) was 2.6% and the concentration (Brain [16]) was 10.1 µM. It also gave a concentration (Brain [17]) of 1.97 µM, a Ratio [18] of under 1.7 and a Fu (Plasma [19]) of under 0.2%. For the same compound, the inhibition in vivo at 3 mg/kg (Rattus norvegicus [12]) was 1.3%, the “Drug uptake(free)” value (Brain [20]) was under 3.9 nM and the “Drug uptake(free)” value (Brain [21]) was under 20 nM. It also gave a Ratio [22] of under 1.1.
In the case of COc1cc(-n2cnc3cc(-c4ccc(Cl)cc4)sc3c2=O)ccc1OCC(C)O (stereo unspecified), the Activity (Rattus norvegicus [23]) is reported as “Toxic”.
